Test results reported in PMC8811960, “A Novel 2-Carbon-Linked Dimeric Artemisinin With Potent Antileukemic Activity and Favorable Pharmacology” (Frontiers in Oncology, 2022).

Experiments:
TF1 = assay: alamarBlue growth inhibition, TF1; format: cell-based; conditions: Homo sapiens, TF-1, TF1, 48h, mean of 2 independent assays ± SD
Experimental: Cytotoxicity was assessed using alamarBlue assays (Life Technologies, Grand Island, NY) following manufacturer’s guidelines. Cell death was verified by Annexin V/7-aminoactinomycin D (7AAD) staining (BioLegend, San Diego, CA) per manufacturer’s guidelines.

MV4;11 AML xenografts = assay: luc-labeled MV4;11 AML cell line xenograft; format: in vivo, NRG mice; conditions: MV4;11 xenograft, 15 mg/kg/d PO, 5 days on, 9 days off, 5 cycles
Source text: Immunodeficient NOD-Rag1^nullIL2rg^null (NRG) mice were purchased from Jackson Laboratory (Bar Harbor, ME), bred and housed at the University of Maryland Baltimore. Similar to our previous publication ([20]). mice were transplanted IV with luc-labeled human AML cell lines or cryopreserved AML patient cells on day -10, and baseline total body luminescence was quantified on day 0 by Xenogen bioluminescence imaging (Xenogen IVIS Spectrum; PerkinElmer, Waltham, MA). Mice were allocated to treatment groups so that each group had similar average day 0 luminescence, then groups were administered drugs per oral (PO; gavage). Luminescence of each mouse was assessed over time and compared with that mouse’s day 0 luminescence (fold-change AML burden). Clinical behavior, appearance, weight, and survival were also monitored.
Using our previously determined 5-day MTD SAV drug schedule (i.e. 5-day treatment cycles consisting of 15 mg/kg/d ART631 combined with 150 mg/kg/d VEN and 30 mg/kg/d SOR, followed by 9 days off drug; schematic in Figure 7A ), we assessed treatment of established human luc-labeled MV4;11 ( Figures 7B–D ) and MOLM14 AML ( Figures 8A–C ) cell line xenografts with VEN plus SOR plus ART631 in NRG mice ( Figures 7B , 8A ). […]

[1] = system: MOLM14, MV4;11, and HL60 human AML cells; design: method as in PMID 33560385; conditions: ART631 200 nM, VEN 50 nM, SOR 5 µM; MOLM14, MV4;11, HL60; cited from earlier work
[2] = Maximum tolerated dose in NRG mice; format: in vivo
Experimental: Mice were dosed orally with ART631 at empirically determined maximally tolerated doses (MTDs) of 75 mg/kg ART631 as a single dose alone or 15 mg/kg as a multiple dose regimen (once daily x5), either alone or in combination with SOR (30 mg/kg/d) and VEN (150 mg/kg/d), for side-by-side comparison to the ART838, SOR and VEN combination evaluated previously ([20]). ART631, SOR, and VEN were mixed in vehicle and given as a single administration. Mice (n = 3/time point) were euthanized at 0.5, 1, 1.5, 2, 3, 4, 6, 8 and 12 h after dosing. ART631 was quantified in plasma as described below. Pharmacokinetic parameters were calculated from mean concentration-time data using non-compartmental methods in Phoenix WinNonlin version 8.3 (Certara, Princeton, NJ). The maximum plasma concentration (Cmax) and time to Cmax (Tmax) were the observed values. The AUClast was calculated using the log-linear trapezoidal method. AUC was extrapolated to infinity (AUCINF) by dividing the last quantifiable concentration by the terminal disposition rate constant (λz). The λz was determined from at least 3 points on the slope of the terminal phase of the concentration-time profile. The terminal half-life (T1/2) was determined by dividing 0.693 by λz. Apparent clearance (Cl/F) was calculated by dividing the dose administered by AUCINF. Apparent volume of distribution (V/F) was calculated by dividing Cl/F by λz. If the percent AUC extrapolated was >20% or the r^2 of λz was <0.85, the AUCINF, Cl/F, T1/2 and V/F were not reported.
In pilot experiments, the MTD of ART631 was determined, in NRG (host strain for our AML xenograft models) mice, to be 75 mg/kg PO (gavage) for a single dose, or 15 mg/kg/d PO x5d every 14 days. When ART631 was combined with 150 mg/kg/d VEN and/or 30 mg/kg/d SOR, as was done previously with ART838 ([20]), ART631 was tolerated at the multiple dose MTD, and no further dose adjustments were made. The PK of ART631 was assessed at the MTD.

SMILES: C=CCO/N=C(/C[C@H]1O[C@@H]2O[C@@]3(C)CC[C@H]4[C@H](C)CC[C@@H]([C@H]1C)[C@@]24OO3)[C@H]1O[C@@H]2O[C@@]3(C)CC[C@H]4[C@H](C)CC[C@@H]([C@H]1C)[C@@]24OO3 [ART631]
- IC50 (TF1): 27 ± 2 nM
- antileukemic activity of monotherapy (MV4;11 AML xenografts): no activity
- cell death as single agents [1]: less than 15%
- tolerability when combined with VEN and/or SOR ([2]; ART631 at multiple dose MTD with 150 mg/kg/d VEN and/or 30 mg/kg/d SOR): tolerated
- MTD ([2]; mouse, in vivo, NRG mice, PO (gavage), single dose): 75 mg/kg
- MTD at 5 d ([2]; mouse, in vivo, NRG mice, PO x5d every 14 days, read-out: MTD, multiple dose): 15 mg/kg/day
